# Measurements from ChEMBL document CHEMBL5584300, “Bioinformatic Approaches Identify Hybrid Antibiotics against Tuberculosis via d-Amino Acid-Activating Adenylation Domains from Cordyceps militaris” (J Nat Prod, 2024).
# Calls of active or inactive are those of the source. No cut-off for these calls is given here.
# Key:
# [1] = test system: Mycobacterium tuberculosis; assay: Antitubercular activity against Mycobacterium tuberculosis H37Rv ATCC 27294 assessed as reduction in microbial growth incubated for 6 days by microplate Alamar Blue assay; format: functional; conditions: H37Rv ATCC 27294, 144 h, time 6 day
# Staphylococcus aureus [2] = assay: Antibacterial activity against methicillin-resistant Staphylococcus aureus ATCC 6538 assessed as reduction in microbial growth incubated for 20 hrs by CLSI based broth microdilution method; format: functional
# Staphylococcus aureus [3] = assay: Antibacterial activity against Staphylococcus aureus ATCC 25923 assessed as reduction in microbial growth incubated for 20 hrs by CLSI based broth microdilution method; format: functional
# Staphylococcus aureus [4] = assay: Antibacterial activity against methicillin-resistant Staphylococcus aureus ATCC 43300 assessed as reduction in microbial growth incubated for 20 hrs by CLSI based broth microdilution method; format: functional
# Staphylococcus aureus [5] = assay: Antibacterial activity against Staphylococcus aureus ATCC 6538P assessed as reduction in microbial growth incubated for 20 hrs by CLSI based broth microdilution method; format: functional
# Bacillus subtilis = assay: Antibacterial activity against Bacillus subtilis ATCC 9372 assessed as reduction in microbial growth incubated for 20 hrs by CLSI based broth microdilution method; format: functional
# Enterococcus faecalis [6] = assay: Antibacterial activity against Enterococcus faecalis ATCC 29212 assessed as reduction in microbial growth incubated for 20 hrs by CLSI based broth microdilution method; format: functional
# Enterococcus faecalis [7] = assay: Antibacterial activity against vancomycin-resistant Enterococcus faecalis ATCC 51299 assessed as reduction in microbial growth incubated for 20 hrs by CLSI based broth microdilution method; format: functional
# [8] = Cytotoxicity against human DLD-1 cells assessed as reduction in cell viability incubated for 48 hrs by sulforhodamine B assay; format: toxicity, cell-based
# [9] = Cytotoxicity against human HepG2 cells assessed as reduction in cell viability incubated for 48 hrs by sulforhodamine B assay; format: toxicity, cell-based
# [10] = Cytotoxicity against human HGC-27 cells assessed as reduction in cell viability incubated for 48 hrs by sulforhodamine B assay; format: toxicity, cell-based
# Escherichia coli = assay: Antibacterial activity against Escherichia coli ATCC 25922 assessed as reduction in microbial growth incubated for 20 hrs by CLSI based broth microdilution method; format: functional
# [11] = test system: Mycobacterium tuberculosis; assay: Antitubercular activity against Mycobacterium tuberculosis H37Rv ATCC 27294 assessed as reduction in microbial growth incubated for 6 days under aerobic condition by microplate Alamar Blue assay; format: functional; conditions: H37Rv ATCC 27294, 144 h, time 6 day
# [12] = test system: Mycobacterium tuberculosis; assay: Antitubercular activity against Mycobacterium tuberculosis H37Rv ATCC 27294 assessed as reduction in microbial growth incubated for 6 days under anaerobic condition by microplate Alamar Blue assay; format: functional; conditions: H37Rv ATCC 27294, 144 h, time 6 day
# [13] = test system: Mycolicibacterium smegmatis; assay: Antitubercular activity against Mycobacterium smegmatis mc2 155 assessed as reduction in microbial growth incubated for […] by CLSI based broth microdilution method; format: functional
# [14] = Cytotoxicity against human Hep3B cells assessed as reduction in cell viability incubated for 48 hrs by sulforhodamine B assay; format: toxicity, cell-based, Hep 3B2
# [15] = test system: Mycobacterium tuberculosis; assay: Bactericidal activity against Mycobacterium tuberculosis H37Rv ATCC 27294 assessed as reduction in bacterial count at 16 time MIC by time kill assay; format: functional, organism-based; conditions: time 2-10 day, TDE = time-dependent effect
# [16] = test system: Mycobacterium tuberculosis; assay: Bactericidal activity against Mycobacterium tuberculosis H37Rv ATCC 27294 expressing pFCA-luxAB assessed as reduction in bacterial count at 16 times MIC preincubated for 10 days under hypoxic condition followed by aerobic condition for 28 hrs by LORA; format: functional, organism-based; conditions: time 268.0 hrs
# [17] = test system: Mycobacterium tuberculosis; assay: Antitubercular activity against Mycobacterium tuberculosis H37Rv ATCC 27294 infected in BALB/c mouse assessed as reduction in bacterial count measured after 4 weeks; format: functional, organism-based; conditions: dose 160-640 mg/kg
# [18] = test system: Mycobacterium tuberculosis; assay: Antitubercular activity against Mycobacterium tuberculosis H37Rv ATCC 27294 infected in BALB/c mouse assessed as reduction in bacterial count at 10 to 40 mg/kg measured after 4 weeks; format: functional, organism-based; conditions: dose 10-40 mg/kg
# [19] = test system: Mycobacterium tuberculosis; assay: Antitubercular activity against Mycobacterium tuberculosis H37Rv ATCC 27294 infected in BALB/c mouse assessed as reduction in bacterial count at 80 mg/kg measured after 4 weeks relative to control; format: functional; set-up: scale not given: the % may be the effect or the level left
# [20] = test system: Mycobacterium tuberculosis; assay: Antitubercular activity against Mycobacterium tuberculosis H37Rv ATCC 27294 infected in BALB/c mouse assessed as log reduction in lung at 160 mg/kg measured after 4 weeks; format: functional
# [21] = test system: Mycobacterium tuberculosis; assay: Antitubercular activity against Mycobacterium tuberculosis H37Rv ATCC 27294 infected in BALB/c mouse chronic model assessed as log reduction in lung at 320 mg/kg drug administered twice daily after 28 days post infection and measured after 4 weeks; format: functional
# [22] = test system: Mycobacterium tuberculosis; assay: Antitubercular activity against Mycobacterium tuberculosis H37Rv ATCC 27294 infected in BALB/c mouse assessed as log reduction in lung at 10 mg/kg measured after 4 weeks; format: functional
# [23] = test system: Mycobacterium tuberculosis; assay: Antitubercular activity against Mycobacterium tuberculosis H37Rv ATCC 27294 infected in BALB/c mouse chronic model assessed as log reduction in lung at 10 mg/kg drug administered after 28 days post infection and measured after 4 weeks; format: functional
# [24] = test system: Mycobacterium tuberculosis; assay: Antitubercular activity against Mycobacterium tuberculosis H37Rv ATCC 27294 infected in BALB/c mouse assessed as reduction in bacterial count in lung at 10 mg/kg measured after 4 weeks; format: functional, organism-based
smiles,measurement,setting,value
C/C=C/[C@@H]1C=C[C@@H]2C[C@H](C)CC[C@H]2[C@]1(C)/C(O)=C1/C(=O)[C@H](CO)N(C)C1=O,MIC,[1],> 64 µg/mL
CC1(C)S[C@@H]2[C@H](NC(=O)[C@H](N)c3ccccc3)C(=O)N2[C@H]1C(=O)O [AMPICILLIN],MIC,Staphylococcus aureus [2],2 µg/mL
same,MIC,Staphylococcus aureus [3],4 µg/mL
same,MIC,Staphylococcus aureus [4],> 64 µg/mL
same,MIC,Staphylococcus aureus [5],> 64 µg/mL
same,MIC,Bacillus subtilis,4 µg/mL
same,MIC,Enterococcus faecalis [6],2 µg/mL
same,MIC,Enterococcus faecalis [7],4 µg/mL
CC(=O)O[C@H]1C(=O)[C@@]2(C)[C@H]([C@H](OC(=O)c3ccccc3)[C@]3(O)C[C@H](OC(=O)[C@H](O)[C@@H](NC(=O)c4ccccc4)c4ccccc4)C(C)=C1C3(C)C)[C@]1(OC(C)=O)CO[C@@H]1C[C@@H]2O [PACLITAXEL],IC50 at 48 h,[8],0.031 µg/mL
same,IC50 at 48 h,[9],0.016 µg/mL
same,IC50 at 48 h,[10],0.008 µg/mL
CC1=C[C@H]2C[C@@H](C)CC[C@]2(C)[C@@](C)(C(=O)C2=C(O)[C@@H](CO)N(C)C2=O)[C@H]1/C=C/C=C/C=C/C[C@@H](C)O,MIC,Staphylococcus aureus [2],4 µg/mL
same,MIC,Staphylococcus aureus [3],8 µg/mL
same,MIC,Staphylococcus aureus [4],4 µg/mL
same,MIC,Staphylococcus aureus [5],8 µg/mL
same,MIC,Bacillus subtilis,8 µg/mL
same,MIC,Enterococcus faecalis [6],4 µg/mL
same,MIC,Enterococcus faecalis [7],8 µg/mL
same,MIC,Escherichia coli,> 64 µg/mL
same,MIC,[11],0.016 µg/mL
same,MIC,[12],> 64 µg/mL
same,MIC,[13],0.25 µg/mL
same,IC50 at 48 h,[8],> 64 µg/mL
same,IC50 at 48 h,[14],> 64 µg/mL
same,IC50 at 48 h,[9],> 64 µg/mL
same,IC50 at 48 h,[10],> 64 µg/mL
same,Activity,[15],Tde
same,Activity,[16],inactive
same,Activity,[17],Dose-Dependent Effect
same,Activity,[18],Dose-Dependent Effect
same,Activity,[19],100%
same,Activity,[20],2 log10CFU
same,Activity,[21],2.3 log10CFU
CC1=C[C@H]2C[C@@H](C)CC[C@@H]2[C@@](C)(C(=O)C2=C(O)[C@H](CO)N(C)C2=O)[C@H]1/C=C/C=C/C=C/C[C@@H](C)O,MIC,[11],1 µg/mL
same,MIC,[12],> 64 µg/mL
same,MIC,[13],> 64 µg/mL
NNC(=O)c1ccncc1 [ISONIAZID],Activity,[22],2.5 log10CFU
same,Activity,[23],3 log10CFU
CO[C@H]1/C=C/O[C@@]2(C)Oc3c(C)c(O)c4c(O)c(c(/C=N/N5CCN(C)CC5)c(O)c4c3C2=O)NC(=O)/C(C)=C\C=C\[C@H](C)[C@H](O)[C@@H](C)[C@@H](O)[C@@H](C)[C@H](OC(C)=O)[C@@H]1C [RIFAMPIN],MIC,[11],0.25 µg/mL
same,MIC,[12],> 64 µg/mL
same,MIC,[13],16 µg/mL
same,MIC,[1],0.25 µg/mL
same,Activity,[24],inactive
same,Activity,[23],3 log10CFU
C/C=C/C=C/[C@H]1C(C)=C[C@H]2C[C@@H](C)CC[C@@H]2[C@@]1(C)/C(O)=C1/C(=O)[C@@H](CO)N(C)C1=O,MIC,[1],16 µg/mL
CC1=C[C@@H]2C[C@@H](C)CC[C@]2(C)[C@@](C)(C(=O)C2=C(O)[C@@H](CO)NC2=O)[C@H]1/C=C/C=C/C=C/C[C@@H](C)O,MIC,[11],2 µg/mL
same,MIC,[12],> 64 µg/mL
same,MIC,[13],> 64 µg/mL
CC1=C[C@H]2C[C@@H](C)CC[C@]2(C)[C@@](C)(C(=O)C2=C(O)[C@@H](CO)NC2=O)[C@H]1/C=C/C=C/C=C/C[C@@H](C)O,MIC,[11],0.5 µg/mL
same,MIC,[12],> 64 µg/mL
same,MIC,[13],> 64 µg/mL
